According to US9266857B2, “Bicyclic AZA compounds as muscarinic M1 receptor agonists” (Heptares Therapeutics Limited, priority 2012, dated 2016):
Read-outs that look alike come from different tables or passages of the source.

How the values were obtained:
Format in all cases: cell-based
[1] = target: T1, human muscarinic M3 receptor (Homo sapiens, UniProt P20309); experiment: Alphascreen Surefire phospho-ERK1/2 functional assay, M3; conditions: for EC50: CHO cells stably expressing human M3, phospho-ERK1/2, read-out: pEC50 M3 (converted); for Emax: CHO, read-out: % Emax cf. ACh, M3
T1 construct: expressed in transfected cells
Experimental: (§1) ERK1/2 phosphorylation is a downstream consequence of both Gq/11 and Gi/o protein coupled receptor activation, making it highly suitable for the assessment of M1, M3 (Gq/11 coupled) and M2, M4 receptors (Gi/o coupled), rather than using different assay formats for different receptor subtypes. CHO cells stably expressing the human muscarinic M1, M2, M3 or M4 receptor were plated (25K/well) onto 96-well tissue culture plates in MEM-alpha+10% dialysed FBS. Once adhered, cells were serum-starved overnight. Agonist stimulation was performed by the addition of 5 μL agonist to the cells for 5 min (37° C.). Media was removed and 50 μL of lysis buffer added. After 15 min, a 4 μL sample was transferred to 384-well plate and 7 μL of detection mixture added. Plates were incubated for 2 h with gentle agitation in the dark and then read on a PHERAstar plate reader.
(§2) pEC50 and Emax figures were calculated from the resulting data for each receptor subtype.

[2] = target: T2, human muscarinic M4 receptor (Homo sapiens, UniProt P08173); experiment: Alphascreen Surefire phospho-ERK1/2 functional assay, M4; conditions: for EC50: phospho-ERK1/2, read-out: pEC50 M4 (converted); for Emax: CHO
T2 construct: expressed in transfected cells
T2 sequence (P08173 1-479): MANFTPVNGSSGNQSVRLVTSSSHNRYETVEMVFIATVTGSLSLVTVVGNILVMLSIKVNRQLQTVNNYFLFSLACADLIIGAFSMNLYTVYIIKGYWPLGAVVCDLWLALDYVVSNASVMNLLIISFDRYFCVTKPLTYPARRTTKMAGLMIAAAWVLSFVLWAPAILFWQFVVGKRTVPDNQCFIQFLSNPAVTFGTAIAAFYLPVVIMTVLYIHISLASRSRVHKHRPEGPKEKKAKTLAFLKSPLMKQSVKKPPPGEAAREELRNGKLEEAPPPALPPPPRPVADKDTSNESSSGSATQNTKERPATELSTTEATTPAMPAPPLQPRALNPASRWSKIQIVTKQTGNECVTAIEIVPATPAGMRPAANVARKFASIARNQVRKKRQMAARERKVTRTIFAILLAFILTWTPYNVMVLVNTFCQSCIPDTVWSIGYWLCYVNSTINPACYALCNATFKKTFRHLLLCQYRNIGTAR
Experimental: as §1, §2

[3] = target: T3, human muscarinic M1 receptor (Homo sapiens, UniProt P11229); experiment: Alphascreen Surefire phospho-ERK1/2 functional assay, M1; conditions: for EC50: phospho-ERK1/2, read-out: pEC50 M1 (converted); for Emax: CHO
T3 construct: expressed in transfected cells
T3 sequence (P11229 1-460): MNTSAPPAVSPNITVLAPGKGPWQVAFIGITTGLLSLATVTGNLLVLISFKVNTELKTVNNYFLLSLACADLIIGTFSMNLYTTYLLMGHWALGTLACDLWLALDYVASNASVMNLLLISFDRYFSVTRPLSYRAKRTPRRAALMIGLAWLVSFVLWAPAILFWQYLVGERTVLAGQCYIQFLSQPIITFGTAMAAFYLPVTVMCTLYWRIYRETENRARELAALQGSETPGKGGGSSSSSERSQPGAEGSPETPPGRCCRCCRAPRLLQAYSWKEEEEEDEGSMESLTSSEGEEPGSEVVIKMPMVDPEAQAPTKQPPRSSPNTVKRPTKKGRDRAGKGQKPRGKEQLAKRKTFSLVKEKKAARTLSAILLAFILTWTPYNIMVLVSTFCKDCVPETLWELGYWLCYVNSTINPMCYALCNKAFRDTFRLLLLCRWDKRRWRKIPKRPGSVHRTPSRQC
Experimental: as §1, §2

[4] = target: T4, human muscarinic M2 receptor (Homo sapiens, UniProt P08172); experiment: Alphascreen Surefire phospho-ERK1/2 functional assay, M2; conditions: for EC50: CHO cells stably expressing human M2, phospho-ERK1/2, read-out: pEC50 M2 (converted); for Emax: CHO, read-out: % Emax cf. ACh, M2
T4 construct: expressed in transfected cells
T4 sequence (P08172 1-466): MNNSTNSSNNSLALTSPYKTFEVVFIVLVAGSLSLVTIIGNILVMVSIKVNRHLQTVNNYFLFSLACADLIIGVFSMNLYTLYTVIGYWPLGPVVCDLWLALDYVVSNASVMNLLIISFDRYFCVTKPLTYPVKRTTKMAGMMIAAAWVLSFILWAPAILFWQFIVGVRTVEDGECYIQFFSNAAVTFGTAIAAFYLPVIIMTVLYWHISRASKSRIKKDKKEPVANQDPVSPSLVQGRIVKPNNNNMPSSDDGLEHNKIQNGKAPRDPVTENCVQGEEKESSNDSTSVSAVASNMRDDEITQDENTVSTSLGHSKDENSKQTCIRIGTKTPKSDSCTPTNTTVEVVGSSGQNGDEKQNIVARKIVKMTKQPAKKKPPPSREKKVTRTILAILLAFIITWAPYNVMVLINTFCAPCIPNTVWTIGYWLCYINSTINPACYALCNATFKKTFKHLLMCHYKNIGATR
Experimental: as §1, §2

[5] = CHO cells stably expressing human M4
[6] = CHO cells stably expressing human M1
[7] = read-out: % Emax cf. ACh, M4, CHO cells stably expressing human M4, relative to ACh
[8] = read-out: % Emax cf. ACh, M1, CHO cells stably expressing human M1, relative to ACh

T1 sequence (P20309 whole entry): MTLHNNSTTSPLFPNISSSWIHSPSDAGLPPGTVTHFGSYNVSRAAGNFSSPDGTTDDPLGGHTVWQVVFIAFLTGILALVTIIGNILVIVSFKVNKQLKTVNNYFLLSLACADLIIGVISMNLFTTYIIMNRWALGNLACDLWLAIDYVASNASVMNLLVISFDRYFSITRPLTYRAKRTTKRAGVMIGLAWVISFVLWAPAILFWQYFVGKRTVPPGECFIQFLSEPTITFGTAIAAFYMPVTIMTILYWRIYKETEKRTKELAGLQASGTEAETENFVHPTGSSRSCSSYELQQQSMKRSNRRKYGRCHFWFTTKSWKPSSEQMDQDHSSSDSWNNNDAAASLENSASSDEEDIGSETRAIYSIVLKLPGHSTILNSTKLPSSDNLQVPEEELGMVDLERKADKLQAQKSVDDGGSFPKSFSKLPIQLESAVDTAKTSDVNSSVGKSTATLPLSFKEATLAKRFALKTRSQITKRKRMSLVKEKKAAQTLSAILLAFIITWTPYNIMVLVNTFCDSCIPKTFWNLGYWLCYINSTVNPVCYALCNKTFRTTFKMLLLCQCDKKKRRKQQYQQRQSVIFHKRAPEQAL

Compound | EC50 [1] | Emax [1] | EC50 [2, 5] | EC50 [3, 6] | EC50 [4] | Emax [4] | Emax ([2]; read-out: % Emax cf. ACh, M4) | Emax ([3]; read-out: % Emax cf. ACh, M1) | % Emax cf. ACh, M4 ([2]; CHO cells stably expressing human M4, relative to ACh, listed as 1 - Isomer 2) | % Emax cf. ACh, M1 ([3]; CHO cells stably expressing human M1, relative to ACh) | Emax [2, 7] | Emax [3, 8]
CCOC(=O)N1C2CCC1CC(N1CCC(C(=O)NC3(C)CCC3)CC1)C2 (single isomer, unassigned) [Example 1 - Isomer 2, ethyl 3-{4-[(1-methylcyclobutyl)carbamoyl]piperidin-1-yl}-8-azabicyclo[3.2.1]octane-8-carboxylate] | > 20000 nM | 18% | 170 nM | 41.7 nM | > 20000 nM | 0% | – | – | 98% | 102% | – | –
C#CCOC(=O)N1C2CCC1CC(N1CCC(C(=O)NC3(C)CCC3)CC1)C2 (single isomer, unassigned) [Example 2 - Isomer 1, prop-2-yn-1-yl 3-{4-[(1-methylcyclobutyl)carbamoyl]piperidin-1-yl}-8-azabicyclo[3.2.1]octane-8-carboxylate] | > 20000 nM | 7% | > 20000 nM | 331 nM | > 20000 nM | 14% | – | – | – | – | 11% | 94%
CCOC(=O)N1CC2CC(N3CCC(C(=O)NC4(C)CCC4)CC3)CC2C1 (mixture of isomers) [Example 8 - mixture of diastereomers, ethyl 5-{4-[(1-methylcyclobutyl)carbamoyl]piperidin-1-yl}hexahydrocyclopenta[c]pyrrole-2(1H)-carboxylate] | > 20000 nM | 8% | 1700 nM | 110 nM | > 20000 nM | 5% | 29% | 118% | – | – | – | –
CC#CCOC(=O)N1C2CCC1CC(N1CCC(C(=O)NC3(C)CCC3)CC1)C2 (single isomer, unassigned) [Example 3 - Isomer 2, but-2-yn-1-yl 3-{4-[(1-methylcyclobutyl)carbamoyl]piperidin-1-yl}-8-azabicyclo[3.2.1]octane-8-carboxylate] | > 20000 nM | 2% | 851 nM | 363 nM | > 20000 nM | 10% | – | – | – | – | 65% | 109%
CCOC(=O)N1CCC2(CC(N3CCC(C(=O)NC4(C)CCC4)CC3)C2)C1 (mixture of isomers) [Example 9 - mixture of diastereomers, ethyl 2-{4-[(1-methylcyclobutyl)carbamoyl]piperidin-1-yl}-6-azaspiro[3.4]octane-6-carboxylate] | > 20000 nM | 5% | 380 nM | 51.3 nM | > 20000 nM | 6% | 66% | 142% | – | – | – | –
CCOC(=O)N1[C@@H]2CCC[C@H]1CC(N1CCC(C(=O)NC3(C)CCC3)CC1)C2 (mixture of isomers) [Example 6 - mixture of diastereomers, ethyl 3-{4-[(1-methylcyclobutyl)carbamoyl]piperidin-1-yl}-9-azabicyclo[3.3.1]nonane-9-carboxylate] | > 20000 nM | 5% | 468 nM | 43.7 nM | > 20000 nM | 13% | – | – | – | – | 54% | 151%
CCOC(=O)N1CC2CC(N3CCC(C(=O)NC4(C)CCC4)CC3)CC1C2 (mixture of isomers) [Example 7 - mixture of diastereomers, ethyl 3-{4-[(1-methylcyclobutyl)carbamoyl]piperidin-1-yl}-6-azabicyclo[3.2.1]octane-6-carboxylate] | > 20000 nM | 4% | 447 nM | 55 nM | > 20000 nM | 10% | 81% | 127% | – | – | – | –

The next lines start with results.

EC50 [1] | Emax [1] | EC50 [2, 5] | EC50 [3, 6] | EC50 [4] | Emax [4] | Emax ([2]; read-out: % Emax cf. ACh, M4) | Emax ([3]; read-out: % Emax cf. ACh, M1) | Compound | % Emax cf. ACh, M4 ([2]; CHO cells stably expressing human M4, relative to ACh, listed as 1 - Isomer 2) | % Emax cf. ACh, M1 ([3]; CHO cells stably expressing human M1, relative to ACh) | Emax [2, 7] | Emax [3, 8]
> 20000 nM | 39% | 52.5 nM | 15.8 nM | > 20000 nM | 7% | 44% | 139% | C#CCOC(=O)N1CC2(CCC(N3CCC(C(=O)NC4(C)CCC4)CC3)C2)C1 (racemic) [Example 13 - racemic, prop-2-yn-1-yl 6-{4-[(1-methylcyclobutyl)carbamoyl]piperidin-1-yl}-2-azaspiro[3.4]octane-2-carboxylate] | – | – | – | –
> 20000 nM | 17% | 174 nM | 53.7 nM | > 20000 nM | 23% | 83% | 108% | [2H]C([2H])([2H])COC(=O)N1CCC2(CC(N3CCC(C(=O)NC4(C)CCC4)CC3)C2)C1 (single isomer, unassigned) [Example 25 - Isomer 2, (2,2,2-trideutero)ethyl 2-{4-[(1-methylcyclobutyl)carbamoyl]piperidin-1-yl}-6-azaspiro[3.4]octane-6-carboxylate] | – | – | – | –
> 20000 nM | 3% | 339 nM | 155 nM | > 20000 nM | 10% | 42% | 93% | CC#CCOC(=O)N1CCC2(CC(N3CCC(C(=O)NC4(C)CCC4)CC3)C2)C1 (mixture of isomers) [Example 10 - mixture of diastereomers, but-2-yn-1-yl 2-{4-[(1-methylcyclobutyl)carbamoyl]piperidin-1-yl}-6-azaspiro[3.4]octane-6-carboxylate] | – | – | – | –
> 20000 nM | 13% | 186 nM | 55 nM | > 20000 nM | 18% | 91% | 107% | [2H]C([2H])([2H])C([2H])([2H])OC(=O)N1CCC2(CC(N3CCC(C(=O)NC4(C)CCC4)CC3)C2)C1 (single isomer, unassigned) [Example 29 - Isomer 2, (1,1,2,2,2-pentadeutero)ethyl 2-{4-[(1-methylcyclobutyl)carbamoyl]piperidin-1-yl}-6-azaspiro[3.4]octane-6-carboxylate] | – | – | – | –
